From US8415469B2, “Compounds and methods for kinase modulation, and indications therefor” (Plexxikon Inc., priority 2005, dated 2013)

What was measured:
Format in all cases: biochemical
Jnk1 = target: T1, Jnk1 (Homo sapiens, UniProt P45983); assay: AlphaScreen kinase assay, Jnk1; details: read-out: IC50, activity toward kinase Jnk1
T1 construct: purchased Upstate Biotechnology

B-Raf V600E = target: T2, B-Raf V600E (Homo sapiens, UniProt P15056, V600E); assay: AlphaScreen kinase assay, B-Raf V600E; details: read-out: IC50, activity toward kinase B-Raf V600E
T2 construct: P4254. pFastBacBD-CDC37 BRAF D437-K722-X, V600E; His6 with pFastBac HT leader (TEV site) (N); made in house; host or cells: Sf9 (baculovirus; chaperone CDC37 co-expressed)
T2 sequence (P15056 with tags, fused parts or gaps V600E): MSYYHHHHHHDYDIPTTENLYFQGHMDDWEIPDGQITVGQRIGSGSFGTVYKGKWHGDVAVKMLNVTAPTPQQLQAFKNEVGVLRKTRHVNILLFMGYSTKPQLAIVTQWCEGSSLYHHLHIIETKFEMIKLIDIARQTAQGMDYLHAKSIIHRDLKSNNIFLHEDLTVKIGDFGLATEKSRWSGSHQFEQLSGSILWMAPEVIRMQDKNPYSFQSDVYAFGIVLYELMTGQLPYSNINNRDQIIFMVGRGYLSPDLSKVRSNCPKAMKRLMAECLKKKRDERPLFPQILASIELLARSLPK

Jnk3 = target: T3, Jnk3 (Homo sapiens, UniProt P53779); assay: AlphaScreen kinase assay, Jnk3; details: read-out: IC50, activity toward kinase Jnk3
T3 construct: purchased Upstate Biotechnology
T3 sequence (P53779 whole entry): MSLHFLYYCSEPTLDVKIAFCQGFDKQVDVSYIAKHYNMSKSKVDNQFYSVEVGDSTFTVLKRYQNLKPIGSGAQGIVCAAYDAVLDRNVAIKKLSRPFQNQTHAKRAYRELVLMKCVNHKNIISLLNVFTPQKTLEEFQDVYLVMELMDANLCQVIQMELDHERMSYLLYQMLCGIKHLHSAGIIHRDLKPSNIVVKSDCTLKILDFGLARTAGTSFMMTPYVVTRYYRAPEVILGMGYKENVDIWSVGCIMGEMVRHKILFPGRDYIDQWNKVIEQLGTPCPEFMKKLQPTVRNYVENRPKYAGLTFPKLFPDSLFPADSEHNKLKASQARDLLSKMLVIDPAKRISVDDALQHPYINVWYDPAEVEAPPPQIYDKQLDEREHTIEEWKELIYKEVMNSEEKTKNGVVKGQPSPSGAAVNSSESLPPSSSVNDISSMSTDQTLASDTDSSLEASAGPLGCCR

FGFR1 = target: T4, FGFR1 (Homo sapiens, UniProt P11362, C488A/C584S); assay: AlphaScreen kinase assay, FGFR1; details: read-out: IC50, activity toward kinase FGFR
T4 construct: P1351.pET N6 BI-PTP FGFR A458-E765-X C488A, C584S; made in house; host or cells: E. coli (PTP1B co-expressed)

B-Raf = target: T5, B-Raf (Homo sapiens, UniProt P15056); assay: AlphaScreen kinase assay, B-Raf; details: read-out: IC50, activity toward kinase B-Raf
T5 construct: purchased Upstate Biotechnology
T5 sequence (P15056 whole entry): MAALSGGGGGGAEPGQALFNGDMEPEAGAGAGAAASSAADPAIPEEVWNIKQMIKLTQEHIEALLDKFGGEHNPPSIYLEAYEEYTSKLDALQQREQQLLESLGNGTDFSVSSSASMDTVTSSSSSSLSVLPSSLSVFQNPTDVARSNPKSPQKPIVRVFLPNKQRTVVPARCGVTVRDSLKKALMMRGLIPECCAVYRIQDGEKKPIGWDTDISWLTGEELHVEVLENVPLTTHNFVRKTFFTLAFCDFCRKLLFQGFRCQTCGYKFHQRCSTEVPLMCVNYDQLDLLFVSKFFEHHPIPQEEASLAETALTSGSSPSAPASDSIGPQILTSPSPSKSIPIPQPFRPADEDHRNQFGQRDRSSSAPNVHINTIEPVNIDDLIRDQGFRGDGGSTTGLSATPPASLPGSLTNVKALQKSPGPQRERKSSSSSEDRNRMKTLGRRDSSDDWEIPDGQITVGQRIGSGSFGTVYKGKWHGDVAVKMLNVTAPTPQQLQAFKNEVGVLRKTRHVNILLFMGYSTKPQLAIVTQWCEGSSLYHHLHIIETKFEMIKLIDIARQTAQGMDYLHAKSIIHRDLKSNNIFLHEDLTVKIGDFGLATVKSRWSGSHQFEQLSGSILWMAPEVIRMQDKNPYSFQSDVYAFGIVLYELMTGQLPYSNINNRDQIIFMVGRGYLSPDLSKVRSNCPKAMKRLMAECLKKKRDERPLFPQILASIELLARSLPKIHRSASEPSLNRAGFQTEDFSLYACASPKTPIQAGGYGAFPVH

Fak = target: T6, Fak (Homo sapiens, UniProt Q05397); assay: AlphaScreen kinase assay, Fak; details: read-out: IC50, activity toward kinase Fak
T6 construct: P1358.pFastBacHtb FAK S411-Q686-X; His6 with pFastBacHTb leader (TEV site) (N); made in house; host or cells: Sf9 (baculovirus)
T6 sequence (Q05397 411-686): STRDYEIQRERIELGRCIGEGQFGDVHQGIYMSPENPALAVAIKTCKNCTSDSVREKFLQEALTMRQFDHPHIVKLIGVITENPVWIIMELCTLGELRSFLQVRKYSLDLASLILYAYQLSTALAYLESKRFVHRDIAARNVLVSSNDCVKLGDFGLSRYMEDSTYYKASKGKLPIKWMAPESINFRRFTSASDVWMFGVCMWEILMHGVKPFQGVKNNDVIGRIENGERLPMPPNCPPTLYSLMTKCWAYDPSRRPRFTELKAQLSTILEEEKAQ

Kit = target: T7, Kit (Homo sapiens, UniProt P10721); assay: AlphaScreen kinase assay, Kit; details: read-out: IC50, activity toward kinase Kit
T7 construct: P1332.N6 BI PTP KIT M552-K948-X COD; His6 (N); made in house; host or cells: E. coli (PTP1B co-expressed)
T7 sequence (P10721 with tags, fused parts or gaps): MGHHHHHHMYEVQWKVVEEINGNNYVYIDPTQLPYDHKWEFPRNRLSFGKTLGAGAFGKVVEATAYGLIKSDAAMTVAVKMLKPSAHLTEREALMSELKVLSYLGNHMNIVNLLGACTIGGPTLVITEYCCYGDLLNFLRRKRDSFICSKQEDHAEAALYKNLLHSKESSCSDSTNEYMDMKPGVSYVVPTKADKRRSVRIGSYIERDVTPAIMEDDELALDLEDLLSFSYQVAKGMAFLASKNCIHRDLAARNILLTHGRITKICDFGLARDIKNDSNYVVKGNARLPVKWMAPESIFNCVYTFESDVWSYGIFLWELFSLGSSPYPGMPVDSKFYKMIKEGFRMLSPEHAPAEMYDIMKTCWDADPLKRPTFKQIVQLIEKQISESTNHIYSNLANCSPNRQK

Src = target: T8, Src (Homo sapiens, UniProt P12931); assay: AlphaScreen kinase assay, Src; details: read-out: IC50, activity toward kinase Src
T8 construct: P1144. pET-N6 BI-PTP SRC V86-L536-X; made in house
T8 sequence (P12931 with tags, fused parts or gaps): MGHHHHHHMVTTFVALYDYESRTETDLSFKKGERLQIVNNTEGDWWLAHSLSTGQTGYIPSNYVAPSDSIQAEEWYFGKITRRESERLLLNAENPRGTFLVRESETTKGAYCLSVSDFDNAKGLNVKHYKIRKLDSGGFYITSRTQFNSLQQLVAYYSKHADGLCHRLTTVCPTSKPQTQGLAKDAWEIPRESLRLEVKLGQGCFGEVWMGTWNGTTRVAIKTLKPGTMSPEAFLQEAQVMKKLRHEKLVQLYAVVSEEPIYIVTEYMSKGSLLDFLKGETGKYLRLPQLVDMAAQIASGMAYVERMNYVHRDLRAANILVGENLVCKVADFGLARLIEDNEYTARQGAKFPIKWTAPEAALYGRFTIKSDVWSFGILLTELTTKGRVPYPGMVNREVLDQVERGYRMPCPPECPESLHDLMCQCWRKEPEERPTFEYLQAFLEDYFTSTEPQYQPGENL

Btk = target: T9, Btk (Homo sapiens, UniProt Q06187); assay: Z'-Lyte FRET kinase assay (Invitrogen), Btk; details: read-out: IC50, activity toward kinase Btk
T9 construct: purchased Invitrogen (assay run by Invitrogen)

Ret = target: T10, Ret (Homo sapiens, UniProt P07949); assay: AlphaScreen kinase assay, Ret; details: read-out: IC50, activity toward kinase Ret
T10 construct: P1378.pET-SF BI-PTP RET H661-R1012 HIS; made in house
T10 sequence (P07949 with tags, fused parts or gaps): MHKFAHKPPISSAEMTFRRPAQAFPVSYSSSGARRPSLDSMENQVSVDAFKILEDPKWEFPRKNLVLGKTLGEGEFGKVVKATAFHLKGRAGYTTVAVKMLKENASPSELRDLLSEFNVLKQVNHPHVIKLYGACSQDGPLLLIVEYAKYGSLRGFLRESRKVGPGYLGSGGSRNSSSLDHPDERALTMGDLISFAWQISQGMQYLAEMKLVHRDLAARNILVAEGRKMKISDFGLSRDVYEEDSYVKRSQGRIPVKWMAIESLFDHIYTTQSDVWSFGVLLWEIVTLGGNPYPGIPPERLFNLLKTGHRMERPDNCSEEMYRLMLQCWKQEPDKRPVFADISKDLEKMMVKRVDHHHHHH

Fms = target: T11, Fms (Homo sapiens, UniProt P07333); assay: AlphaScreen kinase assay, Fms; details: read-out: IC50, activity toward kinase Fms
T11 construct: purchased Upstate Biotechnology
T11 sequence (P07333 20-972): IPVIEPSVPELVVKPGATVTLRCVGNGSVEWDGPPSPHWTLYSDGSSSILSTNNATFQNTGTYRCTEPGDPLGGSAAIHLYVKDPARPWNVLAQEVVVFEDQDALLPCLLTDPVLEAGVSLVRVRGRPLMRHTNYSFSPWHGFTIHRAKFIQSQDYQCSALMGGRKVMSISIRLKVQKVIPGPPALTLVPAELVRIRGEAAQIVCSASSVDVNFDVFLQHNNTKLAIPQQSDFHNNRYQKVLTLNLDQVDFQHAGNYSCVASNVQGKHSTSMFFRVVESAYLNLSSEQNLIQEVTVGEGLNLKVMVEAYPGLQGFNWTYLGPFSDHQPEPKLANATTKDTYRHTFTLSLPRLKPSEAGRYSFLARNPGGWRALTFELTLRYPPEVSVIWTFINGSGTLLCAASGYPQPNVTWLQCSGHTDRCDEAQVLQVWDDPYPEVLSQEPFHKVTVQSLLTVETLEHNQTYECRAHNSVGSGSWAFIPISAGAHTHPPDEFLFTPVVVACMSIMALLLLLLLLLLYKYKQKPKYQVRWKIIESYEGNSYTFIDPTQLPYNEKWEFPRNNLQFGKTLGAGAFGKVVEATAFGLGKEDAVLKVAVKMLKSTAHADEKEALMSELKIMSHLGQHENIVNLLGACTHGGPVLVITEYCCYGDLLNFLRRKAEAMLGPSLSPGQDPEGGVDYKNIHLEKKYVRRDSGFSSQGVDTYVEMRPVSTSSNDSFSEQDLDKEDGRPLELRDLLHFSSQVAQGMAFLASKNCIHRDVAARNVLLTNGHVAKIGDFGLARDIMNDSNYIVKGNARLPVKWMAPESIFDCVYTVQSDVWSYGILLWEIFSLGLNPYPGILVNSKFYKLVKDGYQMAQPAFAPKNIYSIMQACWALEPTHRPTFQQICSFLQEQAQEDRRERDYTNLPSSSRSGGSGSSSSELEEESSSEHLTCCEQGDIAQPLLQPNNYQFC

Kdr = target: T12, Kdr (Homo sapiens, UniProt P35968); assay: Z'-Lyte FRET kinase assay (Invitrogen), Kdr; details: read-out: IC50, activity toward kinase Kdr
T12 construct: purchased Invitrogen (assay run by Invitrogen)

c-Raf-1 = target: T13, c-Raf-1 (Homo sapiens, UniProt P04049); assay: AlphaScreen kinase assay, c-Raf-1; details: read-out: IC50, activity toward kinase c-Raf-1
T13 construct: purchased Upstate Biotechnology
T13 sequence (P04049 whole entry): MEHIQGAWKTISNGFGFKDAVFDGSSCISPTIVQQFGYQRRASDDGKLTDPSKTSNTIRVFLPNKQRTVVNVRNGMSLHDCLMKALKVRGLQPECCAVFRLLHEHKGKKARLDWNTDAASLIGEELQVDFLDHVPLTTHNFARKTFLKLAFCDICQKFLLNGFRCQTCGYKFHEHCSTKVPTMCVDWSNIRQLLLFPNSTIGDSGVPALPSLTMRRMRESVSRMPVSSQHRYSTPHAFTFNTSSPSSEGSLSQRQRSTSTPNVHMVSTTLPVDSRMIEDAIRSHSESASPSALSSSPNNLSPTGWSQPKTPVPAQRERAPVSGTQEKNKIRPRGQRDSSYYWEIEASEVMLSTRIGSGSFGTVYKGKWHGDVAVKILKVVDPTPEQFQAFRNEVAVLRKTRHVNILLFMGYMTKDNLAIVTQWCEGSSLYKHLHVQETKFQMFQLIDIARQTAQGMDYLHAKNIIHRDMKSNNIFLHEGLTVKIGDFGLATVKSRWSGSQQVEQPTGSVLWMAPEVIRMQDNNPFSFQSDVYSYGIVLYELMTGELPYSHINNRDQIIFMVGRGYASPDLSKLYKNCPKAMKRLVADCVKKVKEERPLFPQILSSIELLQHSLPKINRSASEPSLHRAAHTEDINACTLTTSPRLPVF
From the text: AlphaScreen assay was used to screen additional kinases. The assay is similarly dependent on the phosphorylation of a peptide substrate. In this assay, an antibody that recognizes phosphorylated substrate is bound to an acceptor bead. The peptide substrate is attached to biotin, which binds to a donor head that contains streptavidin. Thus phosphorylated substrate is bound by antibody and streptavidin, bringing the donor and acceptor heads into close proximity when kinase is not inhibited. The donor produces singlet oxygen which results in emission from the acceptor when they are in close proximity. Conversely, when kinase is inhibited, the donor and acceptor beads are not associated and the emission from the acceptor is reduced.
AlphaScreen assays were done using compounds dissolved in DMSO to a concentration of 20 mM. The compounds were diluted accordingly to the desired final concentrations in each sample well, using 1:3 serial dilution for a total of 8 concentration points. Plates were prepared such that each kinase reaction is 20 μl in 1× kinase buffer, 5% DMSO and 10 μM ATP. After incubation of the kinase reaction for 1 hour at room temperature, 5 μl of donor beads in stop buffer (50 mM EDTA in 1× kinase buffer) was added, the sample was mixed and incubated for 20 minutes at room temperature before adding 5 μl of acceptor beads in stop buffer. The samples were incubated for 60 minutes at room temperature and the signal per well was read on AlphaQuest reader.

Flt1 = target: T14, Flt1 (Homo sapiens, UniProt P17948); assay: AlphaScreen kinase assay, Flt1; details: read-out: IC50, activity toward kinase Flt1
T14 construct: P1826.pETN6 BI-PTP FLT1 M799-D1165-X WT; His6 (N); made in house; host or cells: E. coli (PTP1B co-expressed)
T14 sequence (P17948 with tags, fused parts or gaps): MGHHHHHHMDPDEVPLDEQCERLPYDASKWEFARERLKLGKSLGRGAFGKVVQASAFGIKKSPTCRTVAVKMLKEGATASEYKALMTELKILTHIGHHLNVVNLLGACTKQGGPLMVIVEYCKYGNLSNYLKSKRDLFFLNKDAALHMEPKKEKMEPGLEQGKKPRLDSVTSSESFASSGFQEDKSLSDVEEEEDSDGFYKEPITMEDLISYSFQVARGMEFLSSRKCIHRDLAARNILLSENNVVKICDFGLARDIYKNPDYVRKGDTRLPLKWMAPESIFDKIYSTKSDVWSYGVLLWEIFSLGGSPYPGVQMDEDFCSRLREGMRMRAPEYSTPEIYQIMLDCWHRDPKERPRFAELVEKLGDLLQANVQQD

Stk6 = target: T15, Stk6 (Homo sapiens, UniProt O14965); assay: Z'-Lyte FRET kinase assay (Invitrogen), Stk6; details: read-out: IC50, activity toward kinase Stk6
T15 construct: purchased Invitrogen (Carlsbad, Calif.), screening service
T15 sequence (O14965 1-403): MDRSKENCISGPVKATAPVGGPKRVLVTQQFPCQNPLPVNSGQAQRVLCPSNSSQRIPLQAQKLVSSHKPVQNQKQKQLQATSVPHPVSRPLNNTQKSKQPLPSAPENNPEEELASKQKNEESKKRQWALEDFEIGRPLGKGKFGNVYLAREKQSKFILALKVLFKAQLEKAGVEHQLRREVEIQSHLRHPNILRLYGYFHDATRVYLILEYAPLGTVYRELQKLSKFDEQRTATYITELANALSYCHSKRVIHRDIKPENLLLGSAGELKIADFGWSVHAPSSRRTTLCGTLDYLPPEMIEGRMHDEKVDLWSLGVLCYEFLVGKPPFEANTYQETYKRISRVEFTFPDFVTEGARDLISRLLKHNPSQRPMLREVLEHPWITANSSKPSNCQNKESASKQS

Measured: IC50

T1 sequence (P45983 whole entry): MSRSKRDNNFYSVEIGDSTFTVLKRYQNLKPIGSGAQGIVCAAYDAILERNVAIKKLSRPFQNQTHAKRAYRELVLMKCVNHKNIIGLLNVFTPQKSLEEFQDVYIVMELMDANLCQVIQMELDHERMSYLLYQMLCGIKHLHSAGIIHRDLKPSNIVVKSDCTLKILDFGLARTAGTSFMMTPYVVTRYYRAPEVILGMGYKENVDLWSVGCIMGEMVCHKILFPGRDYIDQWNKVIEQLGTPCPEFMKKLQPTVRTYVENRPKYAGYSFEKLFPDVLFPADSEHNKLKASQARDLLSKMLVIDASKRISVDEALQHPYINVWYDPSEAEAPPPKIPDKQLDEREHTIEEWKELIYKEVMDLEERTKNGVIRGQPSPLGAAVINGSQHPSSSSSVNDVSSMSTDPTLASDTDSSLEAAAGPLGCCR

CC(=O)Nc1cccc(-c2cnc3[nH]cc(Cc4ccccc4F)c3c2)c1 [Compound P-1347]
≤ 10 µM: Jnk1 | B-Raf V600E | Jnk3 | FGFR1 | B-Raf | Fak | Kit | Src

Cc1ccc(F)cc1C(=O)c1c[nH]c2ncc(-c3ccc(Cl)cc3)cc12 [Compound P-0304]
≤ 10 µM: FGFR1 | Btk | Kit | Ret

CC(=O)Nc1cccc(-c2ccnc3[nH]cc(C(=O)c4ccccc4C)c23)c1 [Compound P-0314]
≤ 10 µM: Btk | Ret

Cc1ccccc1C(=O)c1c[nH]c2ncc(Br)cc12 [Compound P-0217]
≤ 10 µM: FGFR1 | Btk | Kit

COc1ccc(F)c(C(=O)c2c[nH]c3ncc(-c4ccccc4)cc23)c1 [Compound P-0351]
≤ 10 µM: B-Raf V600E | FGFR1 | B-Raf | Fms | Btk | Ret

O=C(c1ccc(Cl)cc1)c1c[nH]c2ncc(-c3ccsc3)cc12 [Compound P-0321]
≤ 10 µM: FGFR1 | Kdr | Btk | Kit | Ret

CCCS(=O)(=O)Nc1ccc(F)c(C(=O)c2c[nH]c3ncc(OC)cc23)c1 [Compound P-1433]
not listed: Jnk3 | Btk | Ret | Kdr | Stk6
≤ 10 µM: all other assays above

COc1cc(OC)cc(C(=O)c2c[nH]c3ncc(-c4cccc(NC(C)=O)c4)cc23)c1 [Compound P-1420, N-{3-[3-(3,5-Dimethoxy-benzoyl)-1H-pyrrolo[2,3-b]pyridin-5-yl]-phenyl}-acetamide]
≤ 10 µM: B-Raf V600E | FGFR1 | B-Raf | Fms | Btk | Kit | Flt1

CCCS(=O)(=O)Nc1cccc(C(=O)c2c[nH]c3ncc(OC)cc23)c1F [Compound P-1256, Propane-1-sulfonic acid [2-fluoro-3-(5-methoxy-1H-pyrrolo[2,3-b]pyridine-3-carbonyl)-phenyl]-amide]
not listed: Jnk3 | Btk | Ret | Fms | Kdr | Stk6
≤ 10 µM: all other assays above

CC(=O)Nc1cccc(-c2ccnc3[nH]cc(C(=O)c4cc(F)ccc4F)c23)c1 [Compound P-0280]
≤ 10 µM: Btk | Ret

CCCS(=O)(=O)Nc1ccc(F)c(C(=O)c2c[nH]c3ncc(Br)cc23)c1 [Compound P-1403, Propane-1-sulfonic acid [3-(5-bromo-1H-pyrrolo[2,3-b]pyridine-3-carbonyl)-4-fluoro-phenyl]-amide]
≤ 10 µM: B-Raf V600E | FGFR1 | c-Raf-1 | Fak | Fms | Kit | Flt1 | Src

Fc1cccc(F)c1Cc1c[nH]c2ncc(-c3cccnc3)cc12 [Compound P-1477, 3-(2,6-Difluoro-benzyl)-5-pyridin-3-yl-1H-pyrrolo[2,3-b]pyridine]
≤ 10 µM: B-Raf V600E | Jnk3 | FGFR1 | B-Raf | Fak | Fms | Src

O=C(Nc1cccc(Cc2c[nH]c3ncc(-c4cccnc4)cc23)c1)NC1CCCC1 [Compound P-1446, 1-Cyclopentyl-3-[3-(5-pyridin-3-yl-1H-pyrrolo[2,3-b]pyridin-3-ylmethyl)-phenyl]-urea]
≤ 10 µM: Jnk1 | B-Raf V600E | FGFR1 | B-Raf | Fak | Kit | Flt1 | Src

CCCCS(=O)(=O)Nc1cccc(C(=O)c2c[nH]c3ncc(Cl)cc23)c1F [Compound P-1250, Butane-1-sulfonic acid [3-(5-chloro-1H-pyrrolo[2,3-b]pyridine-3-carbonyl)-2-fluoro-phenyl]-amide]
not listed: Jnk1 | Jnk3 | Btk | Ret | Kdr | Stk6
≤ 10 µM: all other assays above

NC(=O)c1cccc(-c2cnc3[nH]cc(C(=O)c4ccccc4O)c3c2)c1 [Compound P-1384]
not listed: Btk | Ret | Kdr | c-Raf-1 | Flt1 | Stk6
≤ 10 µM: all other assays above

O=C(c1cccc(NS(=O)(=O)c2ccccc2)c1F)c1c[nH]c2ncc(Cl)cc12 [Compound P-1255, N-[3-(5-chloro-1H-pyrrolo[2,3-b]pyridine-3-carbonyl)-2-fluoro-phenyl]benzenesulfonamide]
not listed: Jnk1 | Jnk3 | Btk | Ret | Kdr | Stk6
≤ 10 µM: all other assays above

O=Cc1ccsc1-c1ccnc2[nH]ccc12 [Compound P-0276]
≤ 10 µM: Fak | Stk6

NC(=O)c1ccc(-c2cnc3[nH]cc(Cc4ccccc4F)c3c2)cc1 [Compound P-1348]
≤ 10 µM: Jnk1 | B-Raf V600E | Jnk3 | FGFR1 | B-Raf | Fak | Kit | Src

CCCS(=O)(=O)Nc1ccc(F)c(Cc2c[nH]c3ncc(-c4cccnc4)cc23)c1F [Compound P-1397]
≤ 10 µM: B-Raf V600E | FGFR1 | c-Raf-1 | B-Raf | Fak | Fms | Kit | Src
